Reference: EP2493892B1, “QUINUCLIDINE COMPOUNDS AS ALPHA-7 NICOTINIC ACETYLCHOLINE RECEPTOR LIGANDS” (Bristol-Myers Squibb Company, priority 2009, dated 2011)

Molecular target: T1, α-7 nicotinic ACh receptor ion channels expressed in mammalian HEK 293 cells (Rattus norvegicus, UniProt Q05941)
T1 construct: expressed in transfected cells
Test: Ca2+-sensitive, fluorescence-based assay for α-7 nicotinic acetylcholine receptor channel function in mammalian cells (FLIPR)
Assay type: cell-based
Details: agonist activity, Ca2+ flux, read-out: FLIPR α7 activity rating (EC50)
Description: • I) α7 Nicotinic Acetycholine Receptor Binding. Membranes were prepared for binding using HEK293 cells stably expressing the rat α7 nicotinic acetycholine receptor (rat α7 nAChR). Cells were homogenized at 4°C in hypotonic lysis buffer consisting of 10 mM Tris (pH 7.4), 5 mM EDTA and protease inhibitors and centrifuged at 32000 xg for 20 minutes. The pellet was washed once in membrane wash buffer consisting of 50 mM Tris (pH 7.4), 1 mM EDTA and protease inhibitors and centrifuged at 32000 xg for 20 minutes. This pellet was then resuspended in assay buffer consisting 50 mM KH2PO4 (pH 7.4 at 25°C), 1 mM EDTA, 0.005 % Triton-X 100 and 0.1% (v/v) Sigma Protease Inhibitor Cocktail. Aliquots were then frozen in dry ice/ethanol and kept at -80°C until the day of the assay. • II) A Ca^2+ -Sensitive, Fluorescence-Based Assay α-7 for Nicotinic Acetylcholine Receptor Channel Function In Mammalian Cells ("FLIPR"). Summary: Lead compounds are evaluated for agonist activity at α-7, α3β4, α4αβ2, and α1β1δ1ε sub-types of nicotinic ACh receptor ion channels expressed in mammalian HEK 293 cells. Agonist potency and efficacy values are determined from kinetic fluorescence Ca^2+ influx measurements made using a 384 well FLIPR (Fluorescence Image Plate Reader). […] The basal fluorescence from the cells is monitored in real time, followed by the acute addition of test compounds. […]

T1 sequence (Q05941 23-502): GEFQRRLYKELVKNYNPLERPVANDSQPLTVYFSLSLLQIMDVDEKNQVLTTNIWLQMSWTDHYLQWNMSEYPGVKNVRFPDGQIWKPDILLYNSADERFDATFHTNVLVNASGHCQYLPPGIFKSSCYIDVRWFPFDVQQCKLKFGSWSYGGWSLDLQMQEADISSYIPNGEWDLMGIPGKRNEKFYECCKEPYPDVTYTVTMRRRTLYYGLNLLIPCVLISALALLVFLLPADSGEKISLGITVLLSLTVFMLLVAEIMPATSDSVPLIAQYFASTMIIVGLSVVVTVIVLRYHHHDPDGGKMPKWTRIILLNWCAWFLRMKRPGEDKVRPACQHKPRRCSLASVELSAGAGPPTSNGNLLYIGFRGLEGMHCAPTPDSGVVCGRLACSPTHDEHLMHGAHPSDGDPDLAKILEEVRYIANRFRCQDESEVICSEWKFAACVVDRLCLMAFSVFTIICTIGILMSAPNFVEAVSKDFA

With c1cncc(-c2ccnc(NC3=NC[C@@]4(CN5CCC4CC5)O3)c2)c1 [Example 1, (R)-N-(3,4'-Bipyridin-2'-yl)-4H-1'-azaspiro[oxazole-5,3'-bicyclo[2.2.2]octan]-2-amine] the EC50 was less than 100 nM.
